Where a name gives a salt, the structure may show the parent alone. Each block holds one molecule with its values, some of them ahead of it.
Experiments:
[1] = Absorption maxima of dyes; type: physicochemical; conditions: for Absorption maximum: main value
[2] = Reduction of front face fluorescence of a coumarin solution by 1 mM phenol red; conditions: 0.5 μM coumarin, phosphate buffer pH 7.5 / 50% methanol
Description: To investigate the ability of a photon reducing agent to reduce fluorescence of a solution, emission of a fluorophore from a sample was monitored in the presence and absence of a photon reducing agent.
Fluorescence from a solution of a blue fluorescent dye, 6-chloro-7-hydroxy coumarin 3-carboxylate, was determined in the presence and absence of a 1 mM phenol red as the photon reducing agent. A solution of 0.5 μM 6-chloro-7-hydroxy coumarin-3-carboxylate in solvent containing 50% (vol/vol) aqueous 39 mM phosphate buffer pH 7.5 and 50% (vol/vol) methanol was prepared. After taking a front face fluorescence spectrum of this solution on a Spex Fluorolog 2, 1% (vol/vol) of a 100 mM aqueous Phenol Red stock solution was added and another spectrum taken. Front face fluorescence refers to exciting the sample at a right angle to the sample surface and collecting emitted light (for example, from the excited region or emission region) at 12.5 degrees from such angle of excitation.

[3] = Reduction of coumarin fluorescence as a function of path length; conditions: 10 μM coumarin + 1 mM phenol red, capillary
Description: To further investigate the ability of photon reducing agents to reduce fluorescence emitted from a solution, fluorescence emitted from a solution containing a fluorophore in the presence of a photon reducing agent was monitored as a function sample thickness.
A photon reducing agent, phenol red, was tested with a fluorophore, coumarin, as a function of sample thickness (path length). The experiment was conducted using a microscope equipped with epifluorescence. The liquid samples were drawn into low fluorescence capillary tubes of fixed path length (Vitro Dynamics, Rockaway N.J.) as indicated in the graphs. The following samples were evaluated:
1) 10 μM coumarin (diamonds)
2) 10 μM coumarin+1 mM phenol red (squares)
3) 10 μM coumarin+5% (vol/vol) Schilling Red (triangles).
The samples were excited using a 405/20 filter via a 425 dichroic reflector through a 20× objective (Zeiss 20×Fluar). Emitted light was filtered through a 460/50 filter and detected by an intensified CCD camera (Stanford Photonics, Menlo Park, Calif.). The detector output was converted to a 512×512 pixel eight-bit digital image. The data reflect the average intensity within a 20×20 pixel area within the capillary. The background intensity of the field was subtracted from all values.

[4] = Effect of 50% methanol on coumarin fluorescence and phenol red absorbance (dye stacking); type: physicochemical
Description: To further investigate the ability of a photon reducing agent to reduce fluorescence of a solution, fluorescence of a dye in the presence of a photon reducing agent was monitored in the presence and absence of methanol.
[…] A 10 μM solution of 6-chloro-7-hydroxy coumarin-3-carboxylate was prepared in 39 mM phosphate buffer pH 7.5 and in a 1:1 mixture of same phosphate buffer and methanol. 1% (vol/vol) of a 100 mM aqueous Phenol Red stock solution was added to the solutions.
The presence of methanol increased fluorescence compared to an all aqueous buffer.

[5] = Reduction of solution fluorescence using non-dye quenchers and particulates; conditions: 10 μM coumarin, pH 7.5
[6] = pH 7.15

SMILES: NCCN(CCN)CCN [tris(2-aminoethyl)amine]
concentration typically required (collisional quenchers) [5]: higher than 100 mM

SMILES: CC(=O)Nc1ccc(N=Nc2c(N)ccc3cc(S(=O)(=O)[O-])cc(O)c23)c(S(=O)(=O)[O-])c1.[Na+].[Na+] [Acid Red 37]
Absorption maximum [1]: 513 nm

SMILES: [Cl][Ni][Cl] [nickel (II) salts, nickel (II) chloride]
concentration at which coumarin fluorescence can be reduced [6]: low millimolar range

Continued, in another order:

Absorption maximum [1]: 607 nm
SMILES: Cc1cc(-c2ccc(/N=N/c3c(S(=O)(=O)O)cc4cc(S(=O)(=O)O)cc(N)c4c3O)c(C)c2)ccc1/N=N/c1c(S(=O)(=O)O)cc2cc(S(=O)(=O)O)cc(N)c2c1O [Trypan Blue]

Absorption maximum [1]: 557 nm
Absorption maximum (second value, in parentheses) ([1]; value in parentheses): 423 nm
decrease of absorbance by 50% methanol buffer ([4]; at the emission wavelength of the coumarin): about 20%
SMILES: O=S1(=O)OC(c2ccc(O)cc2)(c2ccc(O)cc2)c2ccccc21 [Phenol Red]
reduction of front face fluorescence [2]: 70 fold
attenuation of coumarin fluorescence [3]: significantly attenuated

increase of fluorescence by 50% methanol buffer ([4]; in the absence of a photon reducing agent): about 30%
SMILES: O=C(O)c1cc2cc(Cl)c(O)cc2oc1=O [6-chloro-7-hydroxy coumarin-3-carboxylate]

Absorption maximum [1]: 425 nm
SMILES: O=C(O)c1nn(-c2ccc(S(=O)(=O)O)cc2)c(O)c1N=Nc1ccc(S(=O)(=O)O)cc1 [Tartrazine]

Source: US6200762A, “Photon reducing agents and compositions for fluorescence assays” (Aurora Biosciences Corporation, priority 1998, dated 2001)
